Legend:
[1] = target: T1, GLT8D1 (recombinant secretory glycosyltransferase 8 domain-containing protein 1) (Homo sapiens, UniProt Q68CQ7); assay: intrinsic tryptophan fluorescence DSF (nanoDSF); assay type: binding; conditions: 0.1 mM ligand, 1 mM MnCl2, 50 mM Tris-HCl pH 7.5; shift relative to Mn2+ alone
T1 construct: lumenal catalytic domain 52-371; GFP fusion kept; secreted from HEK293-F cells; N-glycosylated; expected mass 67,624 Da
T1 sequence (Q68CQ7 52-371): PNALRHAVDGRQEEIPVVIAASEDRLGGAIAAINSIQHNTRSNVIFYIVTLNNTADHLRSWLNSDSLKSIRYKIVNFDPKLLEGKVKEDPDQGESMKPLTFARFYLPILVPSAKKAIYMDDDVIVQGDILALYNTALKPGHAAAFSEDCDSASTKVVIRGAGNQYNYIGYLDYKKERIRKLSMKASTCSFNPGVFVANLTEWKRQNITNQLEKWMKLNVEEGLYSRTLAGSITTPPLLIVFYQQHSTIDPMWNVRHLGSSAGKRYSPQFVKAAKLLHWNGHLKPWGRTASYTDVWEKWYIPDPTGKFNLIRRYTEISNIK

[2] = target: T1, GLT8D1 (recombinant secretory glycosyltransferase 8 domain-containing protein 1); assay: UDP-Glo transferase assay; product by LC-MS/MS; assay type: biochemical; conditions: acceptor, 20 mM; UDP-Gal donor, 5 mM MnCl2, 50 mM Tris-HCl pH 7.5

SMILES	ΔTm [1]	UDP-Glo transferase assay; product by LC-MS/MS [2]
O=c1ccn([C@@H]2O[C@H](COP(=O)(O)OP(=O)(O)O[C@H]3OC[C@@H](O)[C@H](O)[C@H]3O)[C@@H](O)[C@H]2O)c(=O)[nH]1 [UDP-Xyl]	~ 2 °C	–
Nc1nc2c(ncn2[C@@H]2O[C@H](COP(=O)(O)OP(=O)(O)O)[C@@H](O)[C@H]2O)c(=O)[nH]1 [GDP]	+ 7.7 °C	–
CC(=O)N[C@H]1C(O)O[C@H](CO)[C@@H](O)[C@@H]1O (stereo partly drawn) [GlcNAc]	–	With UDP-Gal as donor some transferase reaction was detected towards GalNAc and GlcNAc
O=c1ccn([C@@H]2O[C@H](COP(=O)(O)OP(=O)(O)O)[C@@H](O)[C@H]2O)c(=O)[nH]1 [UDP]	+ 11.2 °C	–
CC(=O)N[C@H]1C(O)O[C@H](CO)[C@H](O)[C@@H]1O (stereo partly drawn) [GalNAc]	–	With UDP-Gal as donor some transferase reaction was detected towards GalNAc and GlcNAc

More lines, main results first:

ΔTm [1]	SMILES	UDP-Glo transferase assay; product by LC-MS/MS [2]
~ 2 °C	CC(=O)N[C@H]1[C@@H](OP(=O)(O)OP(=O)(O)OC[C@H]2O[C@@H](n3ccc(=O)[nH]c3=O)[C@H](O)[C@@H]2O)O[C@H](CO)[C@H](O)[C@@H]1O [UDP-GalNAc]	–
+ 1.3 °C	Nc1ccn([C@@H]2O[C@H](COP(=O)(O)O)[C@@H](O)[C@H]2O)c(=O)n1 [CMP]	–
+ 4.9 °C	O=C(O)[C@H]1O[C@H](OP(=O)(O)OP(=O)(O)OC[C@H]2O[C@@H](n3ccc(=O)[nH]c3=O)[C@H](O)[C@@H]2O)[C@H](O)[C@@H](O)[C@@H]1O [UDP-GlcA]	–
~ 2 °C	CC(=O)N[C@H]1[C@@H](OP(=O)(O)OP(=O)(O)OC[C@H]2O[C@@H](n3ccc(=O)[nH]c3=O)[C@H](O)[C@@H]2O)O[C@H](CO)[C@@H](O)[C@@H]1O [UDP-GlcNAc]	–
